Experimental data from patent US20230255953A1, “USE OF ROLUPERIDONE IN PREVENTING RELAPSE IN SCHIZOPHRENIA PATIENTS” (Minerva Neurosciences, Inc., priority 2022, published 2023).

Tests used:
Type in all cases: in vivo, human
[1] = test system: patients with negative symptoms of schizophrenia; assay: Study #2 (MIN-101C07): rate of relapse and time to relapse; conditions: for Patients who experienced relapse (%) / Patients who experienced relapse (number) / Days to relapse (Kaplan-Meier estimates), Mean / Days to relapse (Kaplan-Meier estimates), Median: ITT, MIN-101C07
Method: “Time to relapse” in the DB period is defined as the number of days from Day 1 to the date of early trial termination due to relapse. […] Treatment differences in time to relapse in the DB period were analyzed using a Cox-regression model with treatment group and Baseline PANSS total score as covariates. For the analysis of the OL period, this analysis was repeated to analyze treatment differences in time to relapse in the study. For the OL period analysis, patients who were not observed to relapse in the study were censored on the date on which they ended the study. Kaplan-Meier plots of time to relapse in the DB period, OL period, and in the study were generated.
In some embodiments, for any of the methods disclosed herein, a relapse refers to a patient who is terminated early during treatment (or a study trial) due to worsening of psychosis or an adverse event or generalized symptom in Table 1.
(§1) Study #2 (also referred to as “MIN101C07”) was a Phase 3, randomized, DB, placebo-controlled, parallel-group 12-week study to evaluate the efficacy and safety of Roluperidone in patients ≥18 years to ≤55 years with negative symptoms of schizophrenia, followed by a 40-week OL extension. The study consisted of a pretreatment screening period of up to 28 days (including an antipsychotic medication washout period), a 12-week, DB, placebo-controlled period, and a 40-week OL period. Eligible patients (with moderate to severe negative symptoms of schizophrenia and stable positive symptoms but without severe symptoms of suspiciousness, agitation, hostility, uncooperativeness, or poor impulse control) were randomized 1:1:1 to receive Roluperidone 32 mg QD, Roluperidone 64 mg QD (GR01/B formulation, see U.S. Pat. No. 11,464,744), or placebo, orally, for 12 weeks. […] During the 40-week OL treatment extension, patients who were initially randomized to Roluperidone 32 mg or 64 mg continued treatment with the same dose, while patients who were initially randomized to placebo crossed over to Roluperidone 32 mg or 64 mg in a 1:1 ratio.

[2] = test system: patients with negative symptoms of schizophrenia; assay: Study #2 (MIN-101C07): safety and tolerability (TEAEs, QT); conditions: for Incidence of TEAEs: DB period
From the text: as §1
The incidence of TEAEs was slightly higher in the Roluperidone groups than in the placebo group during the DB period (42% in the 32 mg Roluperidone group, 37% in the 64 mg Roluperidone group, and 33% in the placebo group). The majority of TEAEs reported were in the System Organ Class (SOC) psychiatric disorders. The most commonly reported TEAEs were insomnia, schizophrenia, anxiety, agitation, and headache. […] In total, 6 patients met stopping criteria due to QT prolongations, and 4 of these 6 patients were discontinued from the study due to such prolongations. The remaining 2 patients were discontinued for other reasons prior to confirming their QT prolongations.

[3] = test system: patients with negative symptoms of schizophrenia; assay: Study #1 (MIN-101C03): Brief Negative Symptoms Scale (BNSS); conditions: Week 12 DB, ITT
From the text: As used herein, “BNSS” is the Brief Negative Symptom Scale. “BNSS” is 13-item instrument designed to measure negative symptoms, specifically: blunted affect, alogia, asociality, anhedonia, and avolition (Kirkpatrick, et al., “The Brief Negative Symptom Scale: Psychometric Properties,” Schizophr. Bull., 2011, 37(2), 300-5.).
Phase 2b Study #1 (also referred to herein as “MIN-101C03”) was a Phase 2b, double-blind (“DB”), placebo-controlled, randomized, multicenter 12-week study to evaluate the efficacy, safety, and tolerability of Roluperidone in patients ≥18 years to ≤60 years with negative symptoms of schizophrenia, followed by a 24-week open-label (“OL”) extension. The primary objective of the study was to evaluate the efficacy of Roluperidone compared to placebo in improving the negative symptoms of schizophrenia as measured by the change from Baseline in the PANSS negative factor score of the PSM (“PANSS PSM”) over 12 weeks of treatment.
The study consisted of a pretreatment screening period of up to 28 days (including washout), a 12-week, DB, placebo-controlled period, and a 24-week OL period. Eligible patients (who were symptomatically stable for at least 3 months and had scores of at least 20 on the PANSS negative subscale score) were randomized in a 1:1:1 ratio to receive oral Roluperidone (a modified-release, “MR”, formulation) 32 mg QD, Roluperidone 64 mg QD, or placebo for 12 weeks. […] During the 24-week, OL treatment extension period, patients who were initially randomized to Roluperidone 32 mg or 64 mg continued on the same dose, while patients who were initially randomized to placebo crossed over to Roluperidone 32 mg or 64 mg in a 1:1 ratio.

[4] = Placebo in DB to 32 mg in OL (N = 59), OL period
[5] = Roluperidone Total 32+64 mg (N = 341), DB period
[6] = Roluperidone Total 32+64 mg, DB period
[7] = Roluperidone throughout, Total (N = 211), OL period

1H-Isoindol-1-one,2-[ [1-[2-(4-fluorophenyl)-2-oxoethyl]-4-piperidinyl]methyl]-2,3-dihydro-, hydrochloride, hydrate (1:1:2) [Roluperidone]
Patients who experienced relapse (%) ([1]; 32 mg (N = 170), DB period): 11%
Patients who experienced relapse (number) ([1]; 32 mg (N = 170), DB period): 18
Patients who experienced relapse (number) ([1]; 32 mg throughout the study (N = 107), OL period): 9
Days to relapse (Kaplan-Meier estimates), Mean ([1]; 32 mg throughout the study, OL period): 232.4 days
Days to relapse (Kaplan-Meier estimates), Mean ([1]; 32 mg, DB period): 124.9 days
Days to relapse (Kaplan-Meier estimates), Median ([1]; 32 mg, DB period): 137.0 days
Patients who experienced relapse (%) ([1]; 64 mg (N = 171), DB period): 5%
Patients who experienced relapse (number) ([1]; 64 mg (N = 171), DB period): 9
Patients who experienced relapse (number) ([1]; 64 mg throughout the study (N = 104), OL period): 10
Days to relapse (Kaplan-Meier estimates), Mean ([1]; 64 mg throughout the study, OL period): 186.7 days
Days to relapse (Kaplan-Meier estimates), Mean ([1]; 64 mg, DB period): 82.1 days
Patients who experienced relapse (%) ([1]; Overall (N = 333), OL period): (8%)
Patients who experienced relapse (number) ([1]; Overall (N = 333), OL period): 25
Days to relapse (Kaplan-Meier estimates), Mean ([1]; Overall, OL period): 254.1 days
Patients who experienced relapse (%) [1, 4]: (10%)
Patients who experienced relapse (number) [1, 4]: 6
Days to relapse (Kaplan-Meier estimates), Mean ([1]; Placebo in DB to 32 mg in OL, OL period): 253.6 days
Patients who experienced relapse (number) ([1]; Placebo in DB to 64 mg in OL (N = 63), OL period): 0
Patients who experienced relapse (number) ([1]; Placebo in DB to Roluperidone in OL, Total (N = 122), OL period): 6
Days to relapse (Kaplan-Meier estimates), Mean ([1]; Placebo in DB to Roluperidone in OL, Total, OL period): 260.4 days
Patients who experienced relapse (%) [1, 5]: 8%
Patients who experienced relapse (number) [1, 5]: 27
Days to relapse (Kaplan-Meier estimates), Mean [1, 6]: 127.8 days
Days to relapse (Kaplan-Meier estimates), Median [1, 6]: 137.0 days
Patients who experienced relapse (%) [1, 7]: (9%)
Patients who experienced relapse (number) [1, 7]: 19
Days to relapse (Kaplan-Meier estimates), Mean ([1]; Roluperidone throughout, Total, OL period): 230.9 days
Relapse by study phase ([1]; Study #2 (n = 513), all subjects, Double-blind (12-weeks)): 6.8%
Relapse overall (discontinued because of positive symptoms worsening) ([1]; Study #2 (n = 513), Overall (over 52 weeks)): 11.7%
Relapse by study phase ([1]; Study #2, Open-label (over 40 weeks)): 7.5%
Change in safety laboratory parameters, including prolactin [2]: no significant change
Change in vital signs, including weight and waist circumference [2]: no significant change
Incidence of TEAEs ([2]; 32 mg): 42%
Incidence of TEAEs ([2]; 64 mg): 37%
Tolerability ([2]; 32 and 64 mg): generally well tolerated
Patients who met stopping criteria due to QT prolongations ([2]; in total): 6 patients
QT prolongation ([2]; majority of clinically significant prolongations with 64 mg): Dose-related QT prolongation was observed
Patients discontinued from the study due to QT prolongations ([2]; of the 6 meeting stopping criteria): 4 patients
Change from Baseline LS Mean: Brief Negative Symptoms Scale Total Score ([3]; 32 mg QD): −5.44
Effect Size vs Placebo: Brief Negative Symptoms Scale Total Score ([3]; 32 mg QD): 0.33
Change from Baseline LS Mean: Brief Negative Symptoms Scale Total Score ([3]; 64 mg QD): −6.94
Effect Size vs Placebo: Brief Negative Symptoms Scale Total Score ([3]; 64 mg QD): 0.56
